The test system of the experiment is NRG1-DOC4 fusion breast cancer cell line, MDA175-VII. The experiment can be described thus: Cell viability of MDA175-VII cells by Cell Titer Glo assay. Format: cell-based. The conditions noted are these: 72 hours; for IC50 values: HER2 targeting antibody alone. The procedure: The cell viability of NRG1-DOC4 fusion breast cancer cell line, MDA175-VII, was tested with treatment of poziotinib with and without antibodies and antibody drug conjugates (ADCs) targeting HER2 and HER2/HER3 dimerization. Cell viability was determined by the Cell Titer Glo assay.

Data on three compounds can be found in patent US20230069749A1, “USE OF POZIOTINIB FOR THE TREATMENT OF CANCERS WITH NRG1 FUSIONS” (Board of Regents, The University of Texas System, priority 2020, published 2023).

`C=CC(=O)N1CCC(Oc2cc3c(Nc4ccc(Cl)c(Cl)c4F)ncnc3cc2OC)CC1` [poziotinib, 1-[4-[4-(3,4-dichloro-2-fluoroanilino)-7-methoxyquinazolin-6-yl]oxypiperidin-1-yl]prop-2-en-1-one]: the IC50 (poziotinib alone) came out at 0.287 nM.

On to T-DM1, for which the IC50 values is 0.6345 µg/mL.

Turning to “pertuzumab: recombinant, humanized monoclonal antibody that inhibits dimerization of HER2”, the IC50 values worked out at 0.0537 µg/mL.
